How the values were obtained:
THP-1 = assay: Antiinflammatory activity against human THP-1 cells assessed as inhibition of LPS induced IL-23 production; format: functional, cell-based
[1] = Clearance in rat at 1 mg/kg, iv; format: ADME, organism-based; settings: in vivo
[2] = Oral bioavailability in rat at 5 mg/kg; format: ADME, organism-based; settings: in vivo
[3] = Antiinflammatory activity against human dendritic cells assessed as inhibition of LPS induced IL-23 production; format: functional, cell-based; settings: Dendritic cell
Rattus norvegicus [4] = assay: Antiinflammatory activity against collagen-induced arthritis rat model assessed as inhibition of disease progression at 10 mg/kg, bid; format: functional
Rattus norvegicus [5] = assay: Antiinflammatory activity against collagen-induced arthritis rat model assessed as inhibition of disease progression at 30 mg/kg, bid; format: functional
Rattus norvegicus [6] = assay: Antiinflammatory activity against collagen-induced arthritis rat model assessed as inhibition of disease progression at 5 mg/kg, bid; format: functional
[7] = biological target: T1, Interleukin-1 receptor-associated kinase 4 (Homo sapiens, UniProt Q9NWZ3); assay: Inhibition of IRAK4 (unknown origin)
T1 sequence (Q9NWZ3 whole entry): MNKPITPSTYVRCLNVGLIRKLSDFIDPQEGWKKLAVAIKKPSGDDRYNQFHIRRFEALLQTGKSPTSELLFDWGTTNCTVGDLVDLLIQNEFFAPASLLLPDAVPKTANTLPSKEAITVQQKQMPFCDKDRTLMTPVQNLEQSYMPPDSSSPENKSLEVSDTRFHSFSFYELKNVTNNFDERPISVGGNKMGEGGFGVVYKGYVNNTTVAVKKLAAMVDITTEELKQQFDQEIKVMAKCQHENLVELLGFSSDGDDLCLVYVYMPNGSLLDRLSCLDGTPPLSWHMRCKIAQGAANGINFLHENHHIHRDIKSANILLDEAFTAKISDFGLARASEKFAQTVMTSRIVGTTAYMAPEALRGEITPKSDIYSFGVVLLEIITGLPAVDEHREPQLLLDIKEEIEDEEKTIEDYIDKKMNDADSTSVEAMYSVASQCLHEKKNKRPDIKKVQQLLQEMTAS

PAD = assay: Induction of PAD activity against human A549 cells; format: toxicity, cell-based
Mus musculus [8] = assay: Antiinflammatory activity against mouse assessed as inhibition of IL-1 beta-stimulated IL-6 expression at 75 mg/kg; format: functional
Rattus norvegicus [9] = assay: Antiinflammatory activity against collagen-induced arthritis rat model assessed as inhibition of disease progression at 20 mg/kg, bid; format: functional
[10] = Drug metabolism in rat liver microsomes assessed as oxidative metabolite formation; format: ADME, Microsome
Mus musculus [11] = assay: Antiinflammatory activity against mouse assessed as inhibition of IL-1 beta-stimulated IL-6 expression at 15 mg/kg; format: functional
Mus musculus [12] = assay: Antiinflammatory activity against mouse assessed as inhibition of IL-1 beta-stimulated IL-6 expression at 45 mg/kg; format: functional
Mus musculus [13] = assay: Antiinflammatory activity against mouse assessed as inhibition of IL-1 beta-stimulated IL-6 expression at 5 mg/kg; format: functional

Row | Structure (SMILES) | IC50 (THP-1) [nM] | clearance [1] [mL/min/kg] | bioavailability [2] [%] | IC50 [3] [nM] | inhibition in vivo at 10 mg/kg (Rattus norvegicus [4]) [%] | inhibition in vivo at 30 mg/kg (Rattus norvegicus [5]) [%] | inhibition in vivo at 5 mg/kg (Rattus norvegicus [6]) [%] | IC50 [7] [nM] | IC50 (PAD) [nM] | inhibition in vivo at 75 mg/kg (Mus musculus [8]) [%] | inhibition in vivo at 20 mg/kg (Rattus norvegicus [9]) [%] | Drug metabolism [10] | inhibition in vivo at 15 mg/kg (Mus musculus [11]) [%] | inhibition in vivo at 45 mg/kg (Mus musculus [12]) [%] | inhibition in vivo at 5 mg/kg (Mus musculus [13]) [%]
1 | NC(=O)[C@@H]1[C@H](Nc2nc(Nc3cc(F)cc(N4CCOCC4)c3)nc3ccoc23)[C@H]2C=C[C@@H]1C2 | 250 | 53 | 38 | 140 | 56 | 100 | 30 | 15 | 3200 | 65 | 97 | – | – | – | –
2 | NC(=O)[C@@H]1[C@H](Nc2nc(Nc3cccc(C(=O)N4CCCC4)c3)nc3ccsc23)[C@H]2C=C[C@@H]1C2 | 90 | 113 | – | 40 | – | – | – | – | 3800 | – | – | Metabolite_Detected | – | – | –
3 | CC(C)n1ncc2ccc(Nc3nc(N[C@H]4[C@@H](C(N)=O)[C@@H]5C=C[C@H]4C5)c4c(ccn4C(F)F)n3)cc21 | 230 | 6 | 43 | 220 | – | 100 | – | 4.3 | 820 | 64 | – | – | 16 | 37 | 9

From ChEMBL document CHEMBL5104140, “Bicyclic pyrimidine compounds as potent IRAK4 inhibitors” (Bioorg Med Chem Lett, 2022)
